Reference: patent US20110263668A1, “Beta 3-Adrenoreceptor Agonists for the Treatment of Cardiac Hypertrophy and Heart Failure” (THE JOHNS HOPKINS UNIVERSITY, priority 2009, published 2011)

Test system: β3−/− and WT mice with transverse aortic constriction (TAC)
Test: Echocardiography in β3−/− and WT mice after TAC with BH4 in the diet
Type: in vivo, mouse
Conditions: BH4 200 mg/kg/day in soft diet
Description: Experimental Model. Baseline echocardiography was performed on 8-week, 4-month, and 14-18 month-old homozygous β3^−/− mice (n=57 total, original breeding pairs kindly provided by Dr. Bradford Lowell (Klein et al. (1999)) and age-matched FVB background WT controls (n=13, Jackson Laboratories, Bar Harbor, Me.). Transverse aortic constriction (TAC) was performed on 8-week-old male β3^−/− (n=21) and age-matched male WT controls (n=24) as previously described (Takimoto et al. (2005)). Briefly, after anesthesia with isoflurane (2%), the chest was opened through a small thoracic window between ribs 2 and 4, and a 25 G needle placed on the transverse aorta. This needle size was chosen to elicit a milder response as initial studies using a standard TAC model (27 G needle) led to pulmonary edema and 100% early mortality in β3^−/− mice. The band was secured using a 7.0 prolene suture, the needle was then removed and the chest closed. Twelve animals per strain underwent sham surgery. To measure pressure changes after TAC, pressure volume loops were obtained using a Millar micromanometer catheter as previously described (Barouch et al. (2002)). Animals were sacrificed 3 or 9 weeks after TAC and myocardial tissue preserved in 10% formalin or snap-frozen in liquid nitrogen for subsequent analysis. To determine whether there were any differences in proximal pressures after TAC between strains, a 1.4 F pressure catheter (Millar Instruments, Houston, Tex.) was advanced into the ascending aorta from the LV, and pressures recorded before and after TAC. […] In vivo cardiac geometry and function were serially assessed by transthoracic echocardiography (Acuson Sequoia C256, 13 MHz transducer; Siemens) in conscious mice. M-mode LV end-systolic and end-diastolic cross-sectional diameter (LVESD, LVEDD), and the mean of septal and posterior wall thicknesses were determined from an average of 3-5 cardiac cycles. LV fractional shortening (% FS) and LV mass were determined using a cylindrical model as previously described (Barouch et al. (2003)).

With `C[C@H](O)[C@H](O)[C@H]1CNc2nc(N)[nH]c(=O)c2N1` [BH4, tetrahydrobiopterin] the “change in fractional shortening” value (WT-TAC/BH4, 3 weeks of TAC) was −1.8±3.0%, the “change in fractional shortening” value (β3−/− TAC/BH4, 3 weeks of TAC) was −0.4±0.2% and the “increase in calculated LV mass” value (β3−/− TAC/BH4, 3 weeks of TAC) was “+15.0±6.8%”.
